For the assay, the system named is POMC. The assay is described as follows: Gene modulation in normal human epidermal melanocytes (NHEM), RT-qPCR PCR array of mRNA expression. The class given is cell-based. Conditions: Melanocyte, 72 h. As to the method: Normal human epidermal melanocytes were cultivated for 24 hours. […] Cells were cultivated for additional 72 hours. All experimental conditions were performed in triplicate.
At the end of the cultivation, the cells were harvested and washed with phosphate buffered saline (PBS) solution and immediately frozen at -80 °C. The expression of selected markers was analyzed using RT-qPCR method on mRNA extracted from cells layer for each treatment condition. The differential expression analysis was performed by PCR arrays of the screening format "mQPA H-Melanocyte-64", which focuses on 64 genes selected for their importance in pigmentation and melanocyte biology.
Total RNA was extracted from each sample using TRI-Reagent®. The amount and quality of the RNA was evaluated using a lab-on-a-chip Bioanalyzer (Agilent technologies). Potential contaminants traces of DNA were removed […] The incorporation of fluorescence in amplified DNA was measured continuously during the PCR cycles. […] The value selected for RE calculations is the "output point" (Ct) of the fluorescence curve. For a given marker, the highest is the cycle number; the lowest, is the mRNA quantity. The RE value is expressed in arbitrary units (AU) according to the equation: (((1)/(2)))^NC x 10^6 Where NC is the number of cycles. [formula]
Background: In qPCR the cycle at which signal appears reflects the starting amount.

Structures are written as SMILES. Where two headings read alike, the source gives them in different places.

Take `Oc1ccc(C=Cc2cc(O)cc(O)c2)cc1` [Resveratrol, 3,4',5 trihydroxystilbene]: the activation at 5 µg/mL reads like this: (read-out: POMC expression ratio compared to control) 5%; (read-out: modulation of expression of the gene POMC when compared to untreated cells) 5%.

The record behind these values is patent EP2522329A1, “Use of resveratrol and arbutin” (DSM IP Assets B.V., priority 2011, dated 2012).
